# In PubChem BioAssay (NCI):
#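 Protocol summary: plate cells (96-well), add compound at 5 concentrations, incubate 48 h, interpolate endpoints linearly. At the GI50, growth is halved. At the TGI there is no net growth.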
# Key:
# Assay in all cases: growth of human tumour cells (NCI), 48 h
# [1] = system: HS 578T breast
# [2] = system: CAKI-1 renal
# [3] = system: SF-268 CNS
# [4] = system: SNB-75 CNS
# [5] = system: NCI/ADR-RES ovarian
# [6] = system: T-47D breast
# [7] = system: PC-3 prostate
# [8] = system: SW-620 colon
# [9] = system: SNB-19 CNS
# [10] = system: COLO 205 colon
Structure (SMILES),GI50 [1] [µM],TGI [1] [µM],GI50 [2] [µM],TGI [2] [µM],GI50 [3] [µM],TGI [3] [µM],GI50 [4] [µM],TGI [4] [µM],GI50 [5] [µM],TGI [5] [µM],GI50 [6] [µM],TGI [6] [µM],GI50 [7] [µM],TGI [7] [µM],GI50 [8] [µM],TGI [8] [µM],GI50 [9] [µM],TGI [9] [µM],GI50 [10] [µM],TGI [10] [µM]
O=C(Nc1cccc(-n2ccc3c(NC(=O)c4ccccc4)ncnc32)c1)Nc1ccc(Cl)c(C(F)(F)F)c1,2.55,22.6,2.04,10.9,3.69,10.5,0.954,9.15,3.73,32,2.61,9.85,1.25,5.93,3.26,10.1,4.41,10.8,2.67,8.36
CN(CCN)[C@H](CSSC[C@@H](c1ccccc1O)N(C)CCN)c1ccccc1O,–,49.9,–,25.8,–,33.7,–,29,–,23.5,–,48.3,–,30.2,–,> 57.3,–,26.2,–,> 53.6
Clc1cc(N/N=C(\c2ccccc2)c2ccccn2)ncn1,–,> 100,–,0.235,–,> 100,–,> 100,–,–,–,45.2,–,> 100,–,> 100,–,> 100,–,–
CC(C)=CCC[C@@H](C)C1=C(O)C(N[C@H](C)c2ccccc2)=C(C)C(=O)C1=O,–,36.7,–,46.9,–,> 64.3,–,> 56.4,–,4.23,–,24.8,–,> 100,–,> 45.2,–,> 100,–,20
COC(=O)c1ccccc1CC1Cc2c(C)ccc(C)c2C1=O (centres undefined),–,> 100,–,> 100,–,> 100,–,> 100,–,70.9,–,87.2,–,> 100,–,> 100,–,> 100,–,34.3
CC1=NN(c2nc(N)nc(CO)n2)C(C)(C)C1,–,> 100,–,> 100,–,> 100,–,> 100,–,> 100,–,> 100,–,> 100,–,> 100,–,> 100,–,> 100
CO[C@@]12C[C@H](CNC(=O)c3ccc[nH]3)O[C@@H]1NC(=O)N2,–,> 100,–,> 100,–,> 100,–,> 100,–,> 100,–,> 100,–,> 100,–,> 100,–,> 100,–,> 100
CC(=O)Oc1ccc2cc(Oc3cc(Cl)c(Cl)cc3Cl)c(=O)oc2c1,–,65,–,33.6,–,> 100,–,44.6,–,–,–,> 100,–,33,–,28,–,81.2,–,–
O=C(C[N+]12CN3CN(CN(C3)C1)C2)c1ccc(-c2ccccc2)cc1,–,> 100,–,> 100,–,39.4,–,38.6,–,89.4,–,> 100,–,34,–,30,–,57.5,–,–
CC(=O)OCC1OC(OCCCOP(=O)(OCCC#N)OCC2OC(n3cnc4c(N)ncnc43)C(OC(=O)c3ccccc3)C2OC(=O)c2ccccc2)C(OC(C)=O)C(OC(C)=O)C1OC(C)=O (centres undefined),–,> 100,–,> 100,–,> 100,–,> 100,–,> 100,–,> 100,–,> 100,–,> 100,–,> 100,–,> 100
Nc1nc(Sc2ccc([N+](=O)[O-])c3nonc23)c2[nH]cnc2n1,–,62.5,–,5.74,–,18,–,12.2,–,25.4,–,4.43,–,18,–,2.87,–,31.4,–,3.11
CNC(=O)[C@H](Cc1ccccc1)NC(=O)N(CCC#N)CCN(C(=O)N[C@@H](Cc1ccccc1)C(=O)OC)c1ccccc1,–,> 100,–,> 100,–,> 100,–,> 100,–,> 100,–,> 100,–,> 100,–,> 100,–,> 100,–,> 100
O=C1NC(N2CCCC(CO)C2)=N/C1=C\c1cccs1 (centres undefined),–,> 100,–,> 100,–,> 100,–,> 100,–,> 100,–,> 100,–,> 100,–,> 100,–,> 100,–,> 100
CC1CC(=O)N(N(C)C)C2(C#N)C(=O)N=C(N)C12C#N (centres undefined),–,> 100,–,48.3,–,> 100,–,> 100,–,> 100,–,> 100,–,> 100,–,> 100,–,> 100,–,> 100
CC1OC(OC2C(O)CC(OC3C(O)CC(OC4CCC5(C)C(CCC6C5CCC5(C)C(C7=CC(=O)OC7)C(O)CC65O)C4)OC3C)OC2C)CC(O)C1O (centres undefined),–,> 100,–,0.396,–,0.607,–,5.37,–,0.968,–,4.72,–,1.59,–,–,–,3.49,–,0.844
